Data published in patent publication US6723716B1, “7-acylamino-3-heteroarylthio-3-cephem carboxylic acid antibiotics and prodrugs thereof” (Essential Therapeutics, Inc., priority 1999, dated 2004).
≈ marks a conversion by molar mass, not a printed value. Read-outs that look alike come from different tables or passages of the source.

Legend:
[1] = Pharmacokinetic evaluation in rat (clearance); format: in vivo; conditions: male, Sprague-Dawley (SD), serum, iv, read-out: Pharmacokinetics Clearance (converted)
Text: Four male SD rats with femoral and jugular vein catheters were obtained from Hilltop Lab Animals, Inc. (Scottdale, Pa.). The catheters in the femoral and jugular veins were filled with 10 units/mL heparin in saline, and kept patent by changing the solution daily. The animals were quarantined for a minimum of two days prior to use, and were maintained on a 12-h light:dark schedule with constant access to food and water before and during the study. On the day of dosing, the animals weighed […] (mean±s.d.).
A 4 mg/mL (active component) dosing solution of mesylate salt of compound 17 was prepared in sterile saline for injection. […] Blood samples (0.2 mL aliquots) were collected from the jugular vein catheter 5, 15, 20, 25, 30, and 45 min, and 1, 2, 3, and 4 h after the start of the infusion. The blood was centrifuged for 10 min and the serum was stored ≦−70° C. until analysis by HPLC.
The plasma concentrations from individual animals were fit to a two-compartment model with zero order input and first-order elimination from the central compartment using weighted nonlinear regression (WinNonlin, Pharsight, Palo Alto, Calif.). Pharmacokinetic parameters were calculated from the fitted parameters using standard equations (Gibaldi M, Perrier D. 1982. Pharmacokinetics, 2nd ed., Marcel Dekker Inc., New York.).

[2] = test system: S. aureus ATCC29213; test: Human serum binding effect: MIC with and without human serum; format: cell-based, Staphylococcus aureus; conditions: 1:1 human serum:MHB
Outline: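 Serum binding was estimated as the ratio of S. aureus ATCC29213 MIC in 1:1 human serum:Mueller-Hinton broth to MIC without serum. Compounds were serially 2-fold diluted, and wells received an early-log-phase inoculum at 1×10^6 CFU/mL final. Inoculum size was checked by colony counts on TSA after overnight incubation at 35 °C.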

[3] = test system: S. aureus Col8A (Meth^S)(lac^−); test: Broth microdilution MIC (NCCLS); format: cell-based; conditions: Staphylococcus aureus
Outline: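 In this NCCLS microdilution, growth inhibition was scored after a 24 h, 35° C incubation in MHB. Inocula (5×10^5 CFU/mL final) came from early log-phase cultures, except enterococci, which were used directly from overnight cultures.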

| SMILES | clearance ([1]; dose 20.0 mg/kg) [mL/min/kg] | Human serum binding effect (ratio of MIC value determined with and without human serum added) [2] | also measured |
| --- | --- | --- | --- |
| NCCSCc1cnccc1SC1=C(C(=O)O)N2C(=O)[C@@H](NC(=O)/C(=N\O)c3nc(N)sc3Cl)[C@H]2SC1 [Cmpd 20, (7R)-7-[(Z)-2-(2-amino-5-chlorothiazol-4-yl)-2-(hydroxyimino)acetamido]-3-[3-(2-aminoethylthiomethyl)pyrid-4-ylthio]-3-cephem-4-carboxylic acid] | 26.5 | 3 | – |
| NCCSCc1nc(N)sc1SC1=C(C(=O)O)N2C(=O)[C@@H](NC(=O)/C(=N\O)c3nc(N)sc3Cl)[C@H]2SC1 [Cmpd 3, (7R)-7-[(Z)-2-(2-amino-5-chlorothiazol-4-yl)-2-(hydroxyimino)acetamido]-3-[4-(2-aminoethylthiomethyl)-2-amino-1,3-thiazol-5-ylthio]-3-cephem-4-carboxylic acid] | – | 4 | clearance ([1]; dose 27.5 mg/kg): 15.8 mL/min/kg |
| NCCSCc1cnccc1SC1=C(C(=O)O)N2C(=O)[C@@H](NC(=O)/C(=N\O)c3nsc(N)n3)[C@H]2SC1 [Cmpd 18, (7R)-7-[(Z)-2-(5-amino-1,2,4-thiadiazol-3-yl)-2-(hydroxyimino)acetamido]-3-[3-(2-aminoethylthiomethyl)pyrid-4-ylthio]-3-cephem-4-carboxylic acid] | 36.2 | 2 | – |
| NCCSCc1nc(SCCN)sc1SC1=C(C(=O)O)N2C(=O)[C@@H](NC(=O)/C(=N\O)c3nc(N)sc3Cl)[C@H]2SC1 [Cmpd 11, (7R)-7-[(Z)-2-(2-amino-5-chlorothiazol-4-yl)-2-(hydroxyimino)acetamido]-3-[4-(2-aminoethylthiomethyl)-2-aminoethylthio-1,3-thiazol-5-ylthio]-3-cephem-4-carboxylic acid] | – | 4 | – |
| N=C(N)NCCSCc1ncccc1SC1=C(C(=O)O)N2C(=O)[C@@H](NC(=O)/C(=N\O)c3nsc(N)n3)[C@H]2SC1 [Cmpd 14, (7R)-7-[(Z)-2-(5-amino-1,2,4-thiadiazol-3-yl)-2-(hydroxyimino)acetamido]-3-[2-(2-guanidinoethylthiomethyl)pyrid-3-ylthio]-3-cephem-4-carboxylic acid] | – | 2 | – |
| NCCSCc1cnccc1SC1=C(C(=O)O)N2C(=O)[C@@H](NC(=O)/C(=N\O)c3cccc(N)n3)[C@H]2SC1 [Cmpd 24, (7R)-7-[(Z)-2-(2-aminopyrid-6-yl)-2-(hydroxyimino)acetamido]-3-[3-(2-aminoethylthiomethyl)pyrid-4-ylthio]-3-cephem-4-carboxylic acid] | 47.5 | – | MIC [3]: 0.5 µg/mL (≈ 0.89 µM) |
| NCCSCc1ncsc1SC1=C(C(=O)O)N2C(=O)[C@@H](NC(=O)/C(=N\O)c3cccc(N)n3)[C@H]2SC1 [Cmpd 23, (7R)-7-[(Z)-2-(2-aminopyrid-6-yl)-2-(hydroxyimino)acetamido]-3-[4-(2-aminoethylthiomethyl)-1,3-thiazol-5-ylthio]-3-cephem-4-carboxylic acid] | 13.5 | – | – |
| NCCSCc1ncccc1SC1=C(C(=O)O)N2C(=O)[C@@H](NC(=O)/C(=N\O)c3nsc(N)n3)[C@H]2SC1 [Cmpd 17, (7R)-7-[(Z)-2-(5-amino-1,2,4-thiadiazol-3-yl)-2-(hydroxyimino)acetamido]-3-[2-(2-aminoethylthiomethyl)pyrid-3-ylthio]-3-cephem-4-carboxylic acid] | – | 2 | clearance ([1]; dose 16.4 mg/kg, mesylate salt, 20 min i.v. infusion): 8.33 mL/min/kg |
| NCCSCc1ccncc1SC1=C(C(=O)O)N2C(=O)[C@@H](NC(=O)/C(=N\O)c3nc(N)sc3Cl)[C@H]2SC1 [Cmpd 21, (7R)-7-[(Z)-2-(2-amino-5-chlorothiazol-4-yl)-2-(hydroxyimino)acetamido]-3-[4-(2-aminoethylthiomethyl)pyrid-3-ylthio]-3-cephem-4-carboxylic acid] | 12.2 | 2 | – |
| NCCSCc1cnccc1SC1=C(C(=O)O)N2C(=O)C(NC(=O)/C(=N\O)c3csc(N)n3)C2SC1 (stereo not drawn) [Cmpd 19] | – | 2 | clearance ([1]; dose 42.5 mg/kg): 20.8 mL/min/kg |
| NCCSCc1ncccc1SC1=C(C(=O)O)N2C(=O)[C@@H](NC(=O)/C(=N\O)c3nc(N)sc3Cl)[C@H]2SC1 [Cmpd 13, (7R)-7-[(Z)-2-(2-amino-5-chlorothiazol-4-yl)-2-(hydroxyimino)acetamido]-3-[2-(2-aminoethylthiomethyl)pyrid-3-ylthio]-3-cephem-4-carboxylic acid] | 13.2 | 2 | – |
| N=C(N)NCCSCc1cnccc1SC1=C(C(=O)O)N2C(=O)[C@@H](NC(=O)/C(=N\O)c3nsc(N)n3)[C@H]2SC1 [Cmpd 25, (7R)-7-[(Z)-2-(5-amino-1,2,4-thiadiazol-3-yl)-2-(hydroxyimino)acetamido]-3-[3-(2-guanidinoethylthiomethyl)pyrid-4-ylthio]-3-cephem-4-carboxylic acid] | 18.7 | 1 | – |
